The text below walks through data of ChEMBL document CHEMBL4049445.

Each structure is given as a SMILES string.

Series [1] in a line: Antiviral activity against Influenza A virus A//HK/7/87 (H3N2) expressing wild-type M2 proton channel infected in MDCK cells assessed as reduction in plaque formation preincubated with virus for 1 hr followed by addition to cells measured after 72 hrs by crystal violet staining based assay. The format is functional, cell-based, Influenza A virus (A/Hong Kong/7/1987(H3N2)).
Series [2] is described as follows: Antiviral activity against Influenza A virus A//HK/7/87 (H3N2) expressing wild-type M2 proton channel infected in MDCK cells assessed as reduction in viral yield after 24 hrs by RT-qPCR method. In kind it is functional, Influenza A virus (A/Hong Kong/7/1987(H3N2)). (Quantitative PCR measures a nucleic acid by following its amplification.)
For another series, the system named is MDCK. As to the kind of experiment: (§1) Cytotoxicity against MDCK cells assessed as reduction in cell viability after 72 hrs by MTS assay. The format is cell-based, Canis lupus familiaris. The following applies: dog, mdck, 72 h.
The target of series [3] is Matrix protein 2 (Influenza A virus (A/Udorn/307/1972(H3N2))) (UniProt P0DOF8). In kind it is cell-based. As to conditions: Influenza A virus (A/udorn/1972(H3N2)); 100 uM.
Series [4] shares this target. In kind it is cell-based. The following applies: Influenza A virus (A/udorn/1972(H3N2)); 100 uM. The source holds these as a separate data set.
Series [5] is described as follows: as §1. In kind it is cell-based, Canis lupus familiaris. As to conditions: dog, MDCK cells.
Series [6] in a line: Antiviral activity against Influenza A virus (A2 Japan/305/57) H2N2 infected in MDCK cells assessed as reduction of virus-induced cytopathic effect after 4 to 5 days by MTS assay. The format is functional, cell-based, Influenza A virus (A/Japan/305/1957(H2N2)).

Matrix protein 2 (Influenza A virus (A/Udorn/307/1972(H3N2))), sequence (P0DOF8 whole entry): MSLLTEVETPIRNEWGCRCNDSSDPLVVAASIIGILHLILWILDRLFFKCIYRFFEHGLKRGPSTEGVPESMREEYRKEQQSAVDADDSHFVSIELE

For orientation: EC50 means the midpoint of the concentration-response curve. As a reminder, the EC99 is the concentration at which the effect reaches the 99% level. Broadly, the CC50 is the concentration giving 50% cytotoxicity. For `N=C(N)N1CCC(C23CC4CC(CC(C4)C2)C3)CC1`, the EC50 in series [1] is > 50 µM. For the same molecule, the EC99 in series [2] is > 2 µM. Besides, the CC50 in the series with MDCK came to 10 µM.

As for `NC12CC3CC(CC(C3)C1)C2` [AMANTADINE], the EC50 in series [1] worked out at 0.14 µM. For the same molecule, the EC99 in series [2] turned out to be 0.51 µM.

As a reminder, the inhibition is the relative decrease from the control value, in per cent. Low readings indicate a response near the control, high ones a response far below the control. Turning to `OC1(C2CCNCC2)C2CC3CC(C2)CC1C3` (stereo not drawn), the values for the inhibition in series [3] and in series [4] were 30% and 25%, respectively. The EC50 in series [1] is > 100 µM. The EC99 in series [2] is 76 µM. The CC50 in the series with MDCK is > 100 µM.

As to `C1CC(CC2C3CC4CC(C3)CC2C4)CCN1` (stereo not drawn), the EC50 in series [1] is > 10 µM. Also, in series [2], the EC99 was > 2 µM. The CC50 with MDCK is 15 µM.

As for `N=C(N)N1CCC(CC2C3CC4CC(C3)CC2C4)CC1` (stereo not drawn), the EC50 in series [1] was > 10 µM. Besides, the EC99 in series [2] is > 2 µM. Moreover, the CC50 in the series with MDCK was 3.8 µM.

For `OC1(CC2CCNCC2)C2CC3CC(C2)CC1C3` (stereo not drawn), the EC50 in series [1] was 10 µM. Also, the EC99 in series [2] was > 50 µM. For the same molecule, the CC50 in the series on MDCK is > 50 µM.

On to `CCN1CCC(C2C3CC4CC(C3)CC2C4)CC1` (stereo not drawn), for which the EC50 in series [1] is > 10 µM. The concentration for an effect of 99% (EC99) in series [2] is > 10 µM. Also, in the series on MDCK, the CC50 stood at 25 µM.

On to `C1CC(C2C3CC4CC(C3)CC2C4)CCN1` (stereo not drawn), for which the EC99 in series [2] was ≥ 50 µM. In addition, in the series with MDCK, the CC50 is > 100 µM.

Take `N=C(N)N1CCC(C=C2C3CC4CC(C3)CC2C4)CC1`: the EC50 in series [1] is > 5 µM. Further, the EC99 in series [2] was > 2 µM. The CC50 at 72 h in series [5] came out at 19 µM.

`CC(N)C12CC3CC(CC(C3)C1)C2` (stereo not drawn) [RIMANTADINE]: the EC50 in series [1] is 0.016 µM. For the same molecule, the EC99 in series [2] is 1.1 µM. Further, in the series on MDCK, the CC50 was > 500 µM.

For `C(=C1C2CC3CC(C2)CC1C3)C1CCNCC1`, in series [1], the EC50 was > 5 µM. Moreover, in series [2], the EC99 is > 10 µM. Besides, in series [5], the CC50 at 72 h stood at 25 µM.

`C1CCC(C23CC4CC(CC(C4)C2)C3)NC1` (stereo not drawn): the EC50 amounted to 3.3 µM in series [6] and 1 µM in series [1]. Moreover, the EC99 in series [2] is 3.5 µM. Moreover, the CC50 in the series with MDCK is > 100 µM.

Take `CN1CCC(CC2C3CC4CC(C3)CC2C4)CC1` (stereo not drawn): the EC50 in series [1] was > 10 µM. The EC99 in series [2] is > 2 µM. Also, in the series with MDCK, the CC50 stood at 6.2 µM.

For `C1CC(C23CC4CC(CC(C4)C2)C3)CCN1`, in series [1], the EC50 stood at 0.14 µM. The EC99 in series [2] is ≥ 1.7 µM. For the same molecule, in the series on MDCK, the CC50 was found to be 18 µM.
